According to PMC11763590, “Fluorescence Polarization Immunoassay for Rapid, Sensitive Detection of the Herbicide 2,4-Dichlorophenoxyacetic Acid in Juice and Water Samples” (Biosensors, 2025):

Target: monoclonal antibody against 2,4-D (MAb)
Assay: fluorescence polarization titration of tracer with antibody
Format: binding

| Structure (SMILES) | Kd |
| --- | --- |
| O=C(COc1ccc(Cl)cc1Cl)NCC(=O)Nc1ccc(-c2c3ccc(=O)cc-3oc3cc(O)ccc23)c(C(=O)O)c1 [2,4-D-GAF, 2,4-D-glycine aminofluorescein] | 3.7 ± 0.6 nM |
| O=C(COc1ccc(Cl)cc1Cl)NCCCCNC(=S)Nc1ccc(-c2c3ccc(=O)cc-3oc3cc(O)ccc23)c(C(=O)O)c1 [2,4-D-BDF, 2,4-D-buthylenediamin fluoresceinthiocarbamyl] | 3.2 ± 0.5 nM |
